Experimental findings from ChEMBL document CHEMBL5257035, “Nucleoside Derived Antibiotics to Fight Microbial Drug Resistance: New Utilities for an Established Class of Drugs?” (J Med Chem, 2016) are described below.

Converted amounts (≈) assume the structure as drawn.

Assay [1] deals with Cryptococcus neoformans. Briefly: Antifungal activity against Cryptococcus neoformans assessed as reduction in fungal growth. It counts as functional.
A short description of assay [2]: Inhibition of Candida albicans chitin synthase.
The subject of the next assay is Coccidioides immitis. Put plainly: Antifungal activity against Coccidioides immitis assessed as reduction in fungal growth. It counts as functional.
Assay [3] concerns Cutaneotrichosporon cutaneum. Briefly: Antifungal activity against Trichosporon cutaneum 3071 assessed as reduction in microbial growth inhibition for 48 hrs by broth microdilution assay. It is filed as functional. A general note: In broth dilution the organism is exposed to a series of concentrations in liquid medium.
The nature of assay [4]: Inhibition of Candida albicans SC5314 chitin synthase using UDP-GlcNAc as substrate incubated for 1 hr.
Assay [5] deals with Candida albicans. Briefly: Antifungal activity against Candida albicans SC5314 assessed as reduction in microbial growth inhibition incubated for 48 hrs by broth microdilution assay. It is filed as functional.
The subject of assay [6] is Candida albicans. Put plainly: Antifungal activity against Candida albicans B-311 assessed as reduction fungal growth incubated for 16 hrs by microbroth dilution method. It is filed as functional.
The target of assay [7] is Phospho-N-acetylmuramoyl-pentapeptide-transferase (Bacillus subtilis (strain 168), UniProt Q03521). Put plainly: Inhibition of Bacillus subtilis MraY.
Assay [8] deals with Pseudomonas aeruginosa. Put plainly: Antibacterial activity against Pseudomonas aeruginosa assessed as reduction in bacterial growth. It counts as functional.
For assay [9], the system named is Staphylococcus chromogenes. Briefly: Antibacterial activity against wild type Staphylococcus chromogenes 7100 assessed as bacterial growth inhibition. It counts as functional.
Assay [10] concerns Candida albicans. Briefly: […] activity against Candida albicans assessed as […] measured after 24 hrs by microtitre dilution method. It counts as functional.
Assay [11] has as its system Candida albicans. Briefly: Antifungal activity against Candida albicans assessed as inhibition of fungal growth. It counts as functional.
Assay [12] concerns Pseudomonas aeruginosa. Put plainly: Antimicrobial activity against Pseudomonas aeruginosa ATCC 27853 assessed as inhibition of microbial growth.
Assay [13] concerns Mycobacterium intracellulare. Put plainly: Antimycobacterial activity against Mycobacterium intracellulare ATCC1954 E-3 assessed as microbial growth reduction. It is filed as functional.
In the next assay the test system is Mycobacterium kansasii. Briefly: Antimycobacterial activity against Mycobacterium kansasii ATCC12478 assessed as microbial growth reduction. It counts as functional.
Another assay deals with Staphylococcus aureus. Put plainly: Antibacterial activity against methicillin-resistant Staphylococcus aureus assessed as reduction in bacterial growth by broth dilution method. It counts as functional.
Assay [14] deals with T1, Phospho-N-acetylmuramoyl-pentapeptide-transferase (Escherichia coli, UniProt E2QF15).
T1 sequence (E2QF15 whole entry): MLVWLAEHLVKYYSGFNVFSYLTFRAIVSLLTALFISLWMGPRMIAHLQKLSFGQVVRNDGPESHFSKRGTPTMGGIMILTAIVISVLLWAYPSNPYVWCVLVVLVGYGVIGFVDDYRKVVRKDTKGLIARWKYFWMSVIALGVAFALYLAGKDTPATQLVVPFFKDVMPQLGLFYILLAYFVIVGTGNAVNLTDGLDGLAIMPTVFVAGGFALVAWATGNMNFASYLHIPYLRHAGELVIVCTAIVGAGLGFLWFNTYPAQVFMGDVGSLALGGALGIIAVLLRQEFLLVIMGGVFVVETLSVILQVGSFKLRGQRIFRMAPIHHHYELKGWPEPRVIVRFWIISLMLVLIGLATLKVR
Put plainly: Inhibition of MraY in Escherichia coli.

Assay [15] deals with Pseudomonas aeruginosa. Put plainly: Antibacterial activity against Pseudomonas aeruginosa ATCC 27853 assessed as bacterial growth inhibition at 32 ug/ml measured after 16 hrs by broth microdilution method. Conditions: dose 32 µg/ml. It counts as functional.
The next assay deals with Proline--tRNA ligase (Escherichia coli, UniProt P16659). Put plainly: Binding affinity to Escherichia coli K12 Prolyl-tRNA synthetase.
Assay [16] can be described thus: Inhibition of Bacillus stearothermophilus tyrosyl tRNA synthetase. Details: species or system Geobacillus stearothermophilus.
Assay [17] has as its system Pseudomonas aeruginosa. Put plainly: Antibacterial activity against Pseudomonas aeruginosa assessed as bacterial growth inhibition. It counts as functional.
Assay [18] deals with Pseudomonas aeruginosa. Briefly: Antibacterial activity against Pseudomonas aeruginosa infected in mouse. It counts as functional.
The next assay relates to Aspergillus niger. Put plainly: Antifungal activity against Aspergillus niger MTCC 282 assessed as reduction in microbial growth measured after 48 hrs by broth dilution method. It counts as functional.
In another assay the test system is Fusarium oxysporum. Put plainly: Antifungal activity against Fusarium oxysporum assessed as inhibition of fungal growth. It counts as functional.
Assay [19] has as its system Cryptococcus neoformans. Put plainly: Antifungal activity against Cryptococcus neoformans assessed as fungal growth inhibition. It counts as functional.
Assay [20] relates to Candida albicans. Put plainly: Antifungal activity against wild type Candida albicans. It counts as functional.

Proline--tRNA ligase, sequence (P16659 whole entry): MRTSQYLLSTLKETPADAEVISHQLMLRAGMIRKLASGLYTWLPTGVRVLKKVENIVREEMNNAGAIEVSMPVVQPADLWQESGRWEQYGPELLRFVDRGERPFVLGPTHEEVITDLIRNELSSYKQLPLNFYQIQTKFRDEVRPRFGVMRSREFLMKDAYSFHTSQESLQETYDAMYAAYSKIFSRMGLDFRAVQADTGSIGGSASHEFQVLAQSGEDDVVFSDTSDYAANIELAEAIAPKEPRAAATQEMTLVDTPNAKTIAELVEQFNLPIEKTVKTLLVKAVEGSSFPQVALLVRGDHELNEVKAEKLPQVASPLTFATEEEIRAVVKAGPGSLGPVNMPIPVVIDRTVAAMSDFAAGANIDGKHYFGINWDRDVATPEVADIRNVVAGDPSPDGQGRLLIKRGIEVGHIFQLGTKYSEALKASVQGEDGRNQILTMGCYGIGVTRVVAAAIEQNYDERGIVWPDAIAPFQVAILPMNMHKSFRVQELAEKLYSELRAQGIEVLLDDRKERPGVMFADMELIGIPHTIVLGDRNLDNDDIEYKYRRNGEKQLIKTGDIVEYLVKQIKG
Phospho-N-acetylmuramoyl-pentapeptide-transferase (Bacillus subtilis (strain 168), UniProt Q03521), sequence (Q03521 whole entry): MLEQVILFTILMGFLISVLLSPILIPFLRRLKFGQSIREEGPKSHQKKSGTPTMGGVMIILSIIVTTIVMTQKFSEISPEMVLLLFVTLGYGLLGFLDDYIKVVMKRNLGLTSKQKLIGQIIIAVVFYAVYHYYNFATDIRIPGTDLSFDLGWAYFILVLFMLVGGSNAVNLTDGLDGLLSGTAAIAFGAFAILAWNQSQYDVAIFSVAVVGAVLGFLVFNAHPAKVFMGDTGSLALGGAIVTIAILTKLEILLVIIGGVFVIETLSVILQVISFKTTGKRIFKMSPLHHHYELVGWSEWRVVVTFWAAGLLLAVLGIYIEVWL

For orientation: MIC means the smallest concentration in the dilution series that meets the test's criterion for growth inhibition. In general, IC50 refers to the midpoint of a concentration-inhibition curve. A high value points to a need for much substance. In the case of `C[C@@H]([C@H](N)C(=O)N[C@H](C(=O)O)[C@H]1O[C@@H](n2ccc(=O)[nH]c2=O)[C@H](O)[C@@H]1O)[C@H](O)c1ccc(O)cn1` [NIKKOMYCIN], the minimal inhibitory concentration (MIC) in the assay on Cryptococcus neoformans [1] was 0.03 µg/mL (≈ 0.0606 µM); in the assay with Coccidioides immitis it was 0.25 µg/mL (≈ 0.505 µM); in assay [3], 64 µg/mL; in the assay on Candida albicans [5], 8 µg/mL; in the assay with Candida albicans [6], 10 µg/mL (≈ 20.2 µM). For the same compound, the half-inhibitory concentration (IC50) in assay [2] was found to be 800 nM; in assay [4] it was 0.3 µg/mL (≈ 0.606 µM).

In [7], `C[C@H](N)C(=O)N[C@@H](C)[C@H](NC(=O)[C@H](C)NC(=O)N[C@@H](Cc1c[nH]c2ccccc12)C(=O)O)C(=O)N/C=C1\O[C@@H](n2ccc(=O)[nH]c2=O)[C@H](O)[C@@H]1O` had a concentration for half-maximal inhibition (IC50) of 42 nM. In other words, the double-digit nanomolar range.

Turning to `C[C@H](N)C(=O)N(C)[C@@H](C)[C@H](NC(=O)[C@H](C)NC(=O)N[C@@H](Cc1c[nH]c2ccccc12)C(=O)O)C(=O)N/C=C1/C[C@@H](O)[C@H](n2ccc(=O)[nH]c2=O)O1` [PACIDAMYCIN D], the MIC in the assay with Pseudomonas aeruginosa [8] was 32 µg/mL (≈ 45 µM).

Consider `C[C@@H]([C@H](N)C(=O)N[C@H](C(=O)O)[C@H]1OC(n2cc(C=O)nc2O)[C@H](O)[C@@H]1O)[C@H](O)c1ccc(O)cn1` (stereo partly drawn) [NIKKOMYCIN X], for which the MIC amounted to 2 µg/mL (≈ 4.04 µM) in assay [9]; 64 µg/mL in [3]; 0.5 µg/mL (≈ 1.01 µM) in the assay on Candida albicans [10]; 16 µg/mL in the assay with Candida albicans [5]; 2 µg/mL (≈ 4.04 µM) in the assay on Candida albicans [11]; 2.5 µg/mL (≈ 5.05 µM) with Candida albicans [6]. Moreover, the IC50 in assay [4] came to 0.1 µg/mL (≈ 0.202 µM).

As for `C[C@@H](NC(=O)NC(Cc1cccc(O)c1)C(=O)O)C(=O)N[C@H](C(=O)N/C=C1/C[C@@H](O)[C@H](n2ccc(=O)[nH]c2=O)O1)[C@H](C)N(C)C(=O)[C@@H](N)C(N)c1cccc(O)c1` (stereo partly drawn), in the assay on Pseudomonas aeruginosa [12], the minimal inhibitory concentration (MIC) stood at 32 µg/mL.

`CO[C@H]1[C@@H](O)[C@H](n2ccc(=O)[nH]c2=O)O[C@@H]1[C@@H](O[C@@H]1OC(C(=O)Nc2ccc(F)c(F)c2)=C[C@@H](O)[C@H]1O)C(N)=O`: the MIC (in assay [13]; in the assay on Mycobacterium kansasii) was 0.5 µg/mL (≈ 0.876 µM) in each case.

As for `NC[C@H]1O[C@@H](O[C@@H](Cn2cc(CCCCCCCCOc3ccc(C(=O)c4ccccc4)cc3)nn2)[C@H]2O[C@@H](n3ccc(=O)[nH]c3=O)[C@H](O)[C@@H]2O)[C@H](O)[C@@H]1O`, in the assay on Staphylococcus aureus, the minimum inhibitory concentration (MIC) came to 8 µg/mL (≈ 10.5 µM). In [14], this compound yielded a half-maximal inhibitory concentration (IC50) of 8000 nM.

In the case of `CCCCCCCCCCCCCCCCC(=O)[C@H](NCCCC(=O)NCCCCNC(=N)N)[C@H](O[C@@H]1O[C@H](CN)[C@@H](O)[C@H]1O)[C@H]1O[C@@H](n2ccc(=O)[nH]c2=O)[C@H](O)[C@@H]1O`, the MIC with Pseudomonas aeruginosa [15] was determined as 4 µg/mL (≈ 4.68 µM).

The term Ki denotes the dissociation constant of the complex between target and ligand, obtained from inhibition or displacement. Low readings indicate tighter binding, high ones weaker binding. `Nc1ncnc2c1ncn2[C@@H]1O[C@H](COS(=O)(=O)NC(=O)[C@@H]2CCCN2)[C@@H](O)[C@H]1O` registered an inhibitory constant (Ki) on Proline--tRNA ligase of 4.3 nM.

For `Nc1ncnc2c1ncn2[C@@H]1O[C@H](COS(=O)(=O)NC(=O)[C@@H](N)Cc2ccc(O)cc2)[C@@H](O)[C@H]1O`, the Ki in assay [16] was 26 nM.

What is called ED50 is the dose at which the effect has come halfway, by size or by number of responders. Low readings indicate greater potency, high ones weaker potency. Turning to `CSCC[C@H](NC(=O)NC(Cc1cccc(O)c1)C(=O)O)C(=O)NC(CN(C)C(=O)[C@@H](N)C(N)Cc1cccc(O)c1)C(=O)N/C=C1/C[C@@H](O)[C@H](n2ccc(=O)[nH]c2=O)O1` (stereo partly drawn), the minimal inhibitory concentration (MIC) in the assay with Pseudomonas aeruginosa [17] came to 1.5 µg/mL (≈ 1.75 µM). The same compound came in with an ED50 with Pseudomonas aeruginosa [18] of 0.05 mg/kg.

Turning to `CSCC[C@H](NC(=O)NC(Cc1cccc(O)c1)C(=O)O)C(=O)NC(CN(C)C(=O)[C@@H](N)C(N)Cc1cccc(O)c1)C(=O)N/C=C1/C[C@@H](O)[C@H](N2CCC(=O)NC2=O)O1` (stereo partly drawn), in the assay on Pseudomonas aeruginosa [17], the MIC was determined as 1.5 µg/mL (≈ 1.75 µM). The compound also came in with an ED50 with Pseudomonas aeruginosa [18] above 0.1 mg/kg.

With `C[C@@H]([C@H](N)C(=O)N[C@H](C(=O)O)[C@@H]1C[C@@H](O)[C@@H](O)[C@H](n2ccc(=O)[nH]c2=O)O1)[C@H](O)c1ccc(O)cc1`, the MIC in the assay on Cryptococcus neoformans [1] stood at 0.25 µg/mL (≈ 0.492 µM); with Coccidioides immitis it was 0.03 µg/mL (≈ 0.059 µM); in the assay with Candida albicans [11], 0.03 µg/mL (≈ 0.059 µM); in the assay on Aspergillus niger it was 0.03 µg/mL.

`CC1(C)O[C@@H]2[C@H](O1)[C@@H](Cn1cc(COc3ccc(Cl)cc3)nn1)O[C@H]2n1ccc(=O)[nH]c1=O`: the MIC came to 32 µg/mL (≈ 67.2 µM) in the assay with Fusarium oxysporum, 8 µg/mL (≈ 16.8 µM) in the assay on Cryptococcus neoformans [19] and 24 µg/mL (≈ 50.4 µM) in the assay on Candida albicans [11].

In assay [16], `Nc1ncnc2c1ncn2[C@@H]1O[C@H](COP(=O)(O)OCC(N)Cc2ccc(O)cc2)[C@@H](O)[C@H]1O` (stereo partly drawn) yielded a Ki of 11 nM. This counts as double-digit nanomolar.

In assay [14], `NC[C@H]1O[C@@H](O[C@@H](Cc2cn(CCCCCCCCCCc3ccccc3)nn2)[C@H]2O[C@@H](n3ccc(=O)[nH]c3=O)[C@H](O)[C@@H]2O)[C@H](O)[C@@H]1O` had an IC50 of 8000 nM. The compound also had a minimum inhibitory concentration (MIC) in the assay with Candida albicans [20] of 20 µg/mL (≈ 29.7 µM).
